Laboratory results reported in article PMC11811597, “Phenomics‐Based Discovery of Novel Orthosteric Choline Kinase Inhibitors” (Angewandte Chemie (International Ed. in English), 2025).

Tested on: ZNF644
Test: Competitive affinity-based chemoproteomics (UNC0965 matrix), MCF7 lysate
Type: binding, human
Settings: 20 μM competitor, n=2
Method: A-366 and UNC0638 were purchased from Tocris. ARIAD and V-11-07-11 were purchased from Wuxi Apptec. UNC0737 and UNC0965 were synthesised as previously described.[1] Hemicholinium-3 and pyruvate kinase/lactic dehydrogenase enzymes were purchased from Sigma Aldrich. Aqueous and organic solvents were MS-grade and acquired by Sigma Aldrich unless stated otherwise.
MDA-MB-231, MCF7 and HEK293 cells were cultured in DMEM (Gibco, #11965092) supplemented with 10% FBS. K562 were cultured in IMDM (Gibco, #12440053) supplemented with 10% FBS. HepG2 were cultured in MEM (Gibco, #11095080) supplemented with 10 % FBS. […]
cultured in McCoy’s 5A (Sigma, M8403) supplemented with 10 % FBS and 1x GlutaMAX (Gibco, #35050061). Cells were maintained at 37 °C in a humidified 5% CO2 atmosphere. Peripheral blood mononuclear cells (PBMC) were isolated from healthy blood donors by density centrifugation. […]
Cell Titer-Glo® reagent was added to each well and total luminescence readings were performed within 15 min using the PHERAstar FSX (BMG Labtech). […]
Digested samples were analysed by nano-UPLC–MS/MS using a Dionex Ultimate 3000 nano UPLC fitted with an EASY spray column (75 μm × 500 mm, 2 μm particle size, Thermo Scientific), coupled to an Orbitrap Q Exactive instrument. […]

`COc1cc2c(NC3CCN(C(C)C)CC3)nc(C3CCCCC3)nc2cc1OCCCN1CCCC1` [UNC0638] was tested, and the “FC vs DMSO (log2 competition), ZNF644” value was -2.1553.
`COc1cc2c(N(C)C3CCN(C(C)C)CC3)nc(C3CCCCC3)nc2cc1OCCCN1CCCC1` [UNC0737] was tested, and the “FC vs DMSO (log2 competition), ZNF644” value was 0.3825.
